Key:
[1] = target: Leukotriene B4 receptor 1 (Homo sapiens) (UniProt Q15722); experiment: The compound was tested for inhibition of [3H]LTB4 binding to Leukotriene B4 (LTB4) receptor on the human neutrophils (PMN) at concentration of 1 uM
[2] = target: Leukotriene B4 receptor 1 (Homo sapiens) (UniProt Q15722); experiment: The compound was tested for inhibition of [3H]LTB4 binding to Leukotriene B4 (LTB4) receptor on the human neutrophils (PMN) at concentration of 100 nM
[3] = target: Leukotriene B4 receptor 1 (Homo sapiens) (UniProt Q15722); experiment: The compound was tested for inhibition of [3H]-LTB4 binding to Leukotriene B4 (LTB4) receptor on the human neutrophils (PMN) at concentration of 10 nM

Chain of Leukotriene B4 receptor 1 (Homo sapiens) (Q15722 whole entry): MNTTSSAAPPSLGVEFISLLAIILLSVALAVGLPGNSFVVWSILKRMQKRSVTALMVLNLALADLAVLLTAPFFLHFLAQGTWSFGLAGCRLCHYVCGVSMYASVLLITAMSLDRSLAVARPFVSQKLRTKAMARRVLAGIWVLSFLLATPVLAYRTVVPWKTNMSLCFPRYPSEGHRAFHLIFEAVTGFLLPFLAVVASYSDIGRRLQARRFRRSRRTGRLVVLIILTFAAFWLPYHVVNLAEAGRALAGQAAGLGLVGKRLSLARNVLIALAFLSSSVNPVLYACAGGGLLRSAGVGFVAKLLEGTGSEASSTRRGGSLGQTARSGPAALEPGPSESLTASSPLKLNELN

SMILES | inhibition [1] | inhibition [2] | inhibition [3]
COc1cc(C(=O)N(C(C)C)C(C)C)ccc1OCCCCCOc1ccc2c(N)noc2c1 | 90% | 10% | < 10%
COc1cc(C(=O)N(C(C)C)C(C)C)ccc1OCCCOc1ccc2c(N)noc2c1 | 92% | 37% | < 10%
COc1cc(C(=O)N(C(C)C)C(C)C)ccc1OCCCCOc1ccc2c(N)noc2c1 | 99% | 95% | 64%
